{"source": "ChEMBL document CHEMBL5143686", "about": "“Development of Azaindole-Based Frameworks as Potential Antiviral Agents and Their Future Perspectives” (J Med Chem, 2022)", "key": {"[1]": {"tested_on": "Human immunodeficiency virus 1", "assay": "Antiviral activity against HIV-1 assessed as inhibition of viral growth", "assay_type": "functional, organism-based"}, "[2]": {"assay": "Basic dissociation constant, pKa of the compound"}, "[3]": {"assay": "Solubility of the compound at pH 5.4", "assay_type": "physicochemical", "conditions": "buffer"}, "[4]": {"assay": "Oral bioavailability in rat", "assay_type": "ADME, organism-based", "conditions": "in vivo"}, "[5]": {"assay": "Oral bioavailability in monkey", "assay_type": "ADME, organism-based, Macaca mulatta", "conditions": "rhesus monkey, in vivo"}, "[6]": {"tested_on": "Human immunodeficiency virus 1", "assay": "Antiviral activity against HIV-1 JR-CSF assessed as inhibition of viral growth", "assay_type": "functional, organism-based", "conditions": "Human immunodeficiency virus 1, JR-CSF"}, "[7]": {"tested_on": "Human immunodeficiency virus 1", "assay": "Antiviral activity against HIV-1 LAI T-tropic (X4) infected in human MT2 cells assessed as inhibition of viral growth by ELISA", "assay_type": "functional, organism-based", "conditions": "Human immunodeficiency virus 1, LAI T-tropic (X4)"}, "[8]": {"tested_on": "Human immunodeficiency virus 1", "assay": "Antiviral activity against HIV-1 SF-2 T-tropic (X4) infected in human MT2 cells assessed as inhibition of viral growth by ELISA", "assay_type": "functional, organism-based", "conditions": "Human immunodeficiency virus 1, SF-2 T-tropic (X4)"}, "[9]": {"tested_on": "Human immunodeficiency virus 1", "assay": "Antiviral activity against HIV-1 NL4-3 T-tropic (X4) infected in human MT2 cells assessed as inhibition of viral growth by ELISA", "assay_type": "functional, organism-based", "conditions": "Human immunodeficiency virus 1, NL4-3 T-tropic (X4)"}, "[10]": {"tested_on": "Human immunodeficiency virus 1", "assay": "Antiviral activity against HIV-1 Bal macrophage-tropic (R5) infected in human PM1 cells assessed as inhibition of viral growth by ELISA", "assay_type": "functional, organism-based", "conditions": "Human immunodeficiency virus 1, Bal macrophage-tropic (R5)"}, "[11]": {"tested_on": "Human immunodeficiency virus 1", "assay": "Antiviral activity against HIV-1 SF-162 macrophage-tropic (R5) infected in human PM1 cells assessed as inhibition of viral growth by ELISA", "assay_type": "functional, organism-based", "conditions": "Human immunodeficiency virus 1, SF-162 macrophage-tropic (R5)"}, "[12]": {"tested_on": "Human immunodeficiency virus 1", "assay": "Antiviral activity against HIV-1 JRFL macrophage-tropic (R5) infected in human PM1 cells assessed as inhibition of viral growth by ELISA", "assay_type": "functional, organism-based", "conditions": "Human immunodeficiency virus 1, JRFL macrophage-tropic (R5)"}, "[13]": {"tested_on": "Human immunodeficiency virus 1", "assay": "Antiviral activity against HIV-1 TLAV T-tropic (X4)/macrophage-tropic (R5) infected in human MT2 cells assessed as inhibition of viral growth by ELISA", "assay_type": "functional, organism-based", "conditions": "Human immunodeficiency virus 1, TLAV T-tropic (X4)/macrophage-tropic (R5)"}, "[14]": {"assay": "Aqueous solubility of the compound", "assay_type": "physicochemical"}, "[15]": {"assay": "Oral bioavailability in dog", "assay_type": "ADME, organism-based, Canis lupus familiaris", "conditions": "in vivo"}}}
{"smiles": "O=C(C(=O)N1CCN(C(=O)c2ccccc2)CC1)c1c[nH]c2c(-c3nccs3)ccc(F)c12", "values": [{"measurement": "EC50", "setting": "[1]", "value": 0.057, "unit": "nM"}]}
{"smiles": "c1cc2cc[nH]c2cn1", "values": [{"measurement": "pKa", "setting": "[2]", "value": 7.93}]}
{"smiles": "c1cc2[nH]ccc2cn1", "values": [{"measurement": "pKa", "setting": "[2]", "value": 8.26}]}
{"smiles": "COc1cnc(OC)c2c1c(C(=O)C(=O)N1CCN(C(=O)c3ccccc3)CC1)cn2COP(=O)(O)O.NCCCC[C@H](N)C(=O)O", "values": [{"measurement": "solubility", "setting": "[3]", "value": "> 12000", "unit": "µg/mL"}]}
{"smiles": "COc1ncc(OC)c2c(C(=O)C(=O)N3CCN(C(=O)c4ccccc4)CC3)c[nH]c12", "values": [{"measurement": "bioavailability", "setting": "[4]", "value": 90, "unit": "%"}, {"measurement": "bioavailability", "setting": "[5]", "value": 60, "unit": "%"}]}
{"smiles": "Cc1ncn(-c2ncc(F)c3c(C(=O)C(=O)N4CC5CN(C(=O)c6ccccc6)CC5C4)c[nH]c23)n1", "note": "(stereo not given)", "values": [{"measurement": "IC50", "setting": "[6]", "value": 0.8, "unit": "nM"}]}
{"smiles": "COc1ccnc2[nH]cc(C(=O)C(=O)N3CCN(C(=O)c4ccccc4)C[C@@H]3C)c12", "values": [{"measurement": "EC50", "setting": "[7]", "value": 2.68, "unit": "nM"}, {"measurement": "EC50", "setting": "[8]", "value": 26.5, "unit": "nM"}, {"measurement": "EC50", "setting": "[9]", "value": 2.94, "unit": "nM"}, {"measurement": "EC50", "setting": "[10]", "value": 15.5, "unit": "nM"}, {"measurement": "EC50", "setting": "[11]", "value": 3.46, "unit": "nM"}, {"measurement": "EC50", "setting": "[12]", "value": 1.47, "unit": "nM"}, {"measurement": "EC50", "setting": "[13]", "value": 0.85, "unit": "nM"}, {"measurement": "solubility", "setting": "[14]", "value": 170, "unit": "µg/mL"}, {"measurement": "bioavailability", "setting": "[4]", "value": 19, "unit": "%"}, {"measurement": "bioavailability", "setting": "[15]", "value": 77, "unit": "%"}, {"measurement": "bioavailability", "setting": "[5]", "value": 24, "unit": "%"}]}
{"smiles": "c1cnc2cc[nH]c2c1", "values": [{"measurement": "pKa", "setting": "[2]", "value": 6.94}]}
{"smiles": "Cc1csc(-c2ccc(F)c3c(C(=O)C(=O)N4CCN(C(=O)c5ccccc5)CC4)c[nH]c23)n1", "values": [{"measurement": "EC50", "setting": "[1]", "value": 0.0058, "unit": "nM"}]}
